Consider 30 compounds from the RepoRT retention time repository (doi:10.1021/acs.analchem.2c02893).

A short description of this data set: RP, Thermo Scientific Acclaim RSLC 120 C18, 100 × 2.1 mm, 2.2 µm, 30 °C, 0.2 mL/min, estimated dead time 1.1 min; A: 90% water + 10% methanol + 0.01% formic acid + 5 mM ammonium formate, pH 3.61; B: methanol + 0.01% formic acid + 5 mM ammonium formate, pH 3.61; gradient (min/%B) 0/1 1/1 2/39 13/99.9 15/99.9 15.1/1 20.1/1. The conditions noted are these: stereoisomer not certain.

With `CC(=O)OCCC(SC(C)=O)=C(C)N(C=O)Cc1cnc(C)nc1N` [Acetiamine], the LC retention time is 4.46 min.
As for `CCCc1nn(C)c2c(=O)[nH]c(-c3cc(C(=O)CN4CC(C)NC(C)C4)ccc3OCC)nc12` (stereo not given) [Acetildenafil-Dimethyl], the figure is 7.5 min; as for `CCCc1nn(C)c2c(=O)[nH]c(-c3cc(C(=O)CN4CCN(CCO)CC4)ccc3OCC)nc12` [Acetildenafil-Hydroxy], 6.94 min.
As for `CCCc1nn(C)c2c(=O)[nH]c(-c3cc(C(=O)CN4CCN(C)CC4)ccc3OCC)nc12` [Acetildenafil-Nor], the figure is 6.99 min; as for `CCCc1nn(C)c2c(=O)[nH]c(-c3cc(C(=O)CN4CCN(CC)CC4)ccc3OCC)nc12` [Acetildenafil], 7.01 min.
As for `CCOCN(C(=O)CCl)c1c(C)cccc1CC` [Acetochlor], the figure is 10.2 min; as for `CC(=O)c1ccc(S(=O)(=O)NC(=O)NC2CCCCC2)cc1` [Acetohexamide], 7.72 min.
Regarding `CC(=O)Oc1ccccc1C(=O)O` [Acetylsalicylic acid_NH4 adduct], the LC retention time was 4.8 min.
Turning to `CSC(=O)c1cccc2nnsc12` [Acibenzolar-S-Methyl], the LC retention time is 9.65 min.
Consider `Nc1nc2c(ncn2COCCO)c(=O)[nH]1` [Aciclovir], for which the LC retention time is 2.34 min.
Under `O=C(O)c1cc(Oc2ccc(C(F)(F)F)cc2Cl)ccc1[N+](=O)[O-]` [Acifluorfen] stands 8.95 min; under `Nc1c([N+](=O)[O-])ccc(Oc2ccccc2)c1Cl` [Aclonifen], 10.9 min.
Under `CCN1CC2(COC)C(O)CC(OC)C34C5CC6(O)C(OC)C(O)C(OC(C)=O)(C5C6OC(=O)c5ccccc5)C(C(OC)C23)C14` (stereo not given) [Aconitine] stands 7.09 min.
As for `CC1(C)C(C=CC(=O)OC(C(F)(F)F)C(F)(F)F)C1C(=O)OC(C#N)c1cccc(Oc2ccccc2)c1` (stereo not given) [Acrinathrin], the LC retention time was 9.17 min.
For the compound `Cc1ccc(C(=CCN2CCCC2)c2cccc(C=CC(=O)O)n2)cc1` [Acrivastine], the LC retention time was 6.66 min.
Under `CCOc1ccc(S(=O)(=O)O)c2cccnc12` [Actinoquinol] stands 3.56 min.
Under `Nc1ncnc2nc[nH]c12` [Adenine] stands 2.43 min.
Under `CN(C)Cc1nnc2n1-c1ccc(Cl)cc1C(c1ccccc1)=NC2` [Adinazolam] stands 8.28 min; under `COc1ccc2cccc(CCNC(C)=O)c2c1` [Agomelatine], 8.68 min.
`CCC1C2CC3C4N(C)c5ccccc5C45CC(C2C5O)N3C1O` (stereo not given) [Ajmaline]: the LC retention time is 5.19 min.
Under `CCc1cccc(CC)c1N(COC)C(=O)CS(=O)(=O)O` [Alachlor-ESA] stands 7.19 min; under `CCc1cccc(CC)c1N(COC)C(=O)CCl` [Alachlor], 10.3 min; under `CCOC(=O)CCN(Cc1ccccc1)SN(C)C(=O)ON=C(C)SC` [Alanycarb], 10.8 min.
Under `CCCS(=O)(=O)c1ccc2nc(NC(=O)OC)[nH]c2c1` [Albendazole sulfone] stands 5.86 min; under `CCCSc1ccc2nc(NC(=O)OC)[nH]c2c1` [Albendazole], 9.19 min; under `CC(C)(C)NCC(O)c1ccc(O)c(CO)c1` (stereo not given) [Albuterol / Salbutamol], 3.23 min.
On to `CNC(=O)ON=CC(C)(C)S(C)(=O)=O` [Aldicarb-sulfone (Aldoxycarb)], for which the LC retention time was 3.75 min.
Under `CNC(=O)ON=CC(C)(C)S(C)=O` (stereo not given) [Aldicarb-sulfoxide] stands 3.5 min; under `CNC(=O)ON=CC(C)(C)SC` [Aldicarb], 6.17 min; under `CC12CCC(=O)C=C1CCC1C2C(O)CC2(C=O)C(C(=O)CO)CCC12` (stereo not given) [Aldosterone], 7.78 min.
